Measured values reported in ChEMBL document CHEMBL1201862, “PubChem BioAssay data set” (2004).
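Where inhibition never reached the appropriate level, the endpoint shown equals the highest concentration tested. Otherwise, values were interpolated linearly from a five-concentration, 48-hour dose response in 96-well plates. Here, GI50 denotes the concentration required for 50% inhibition of growth.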 Activity calls are given as the source filed them. No stated cut-off is given here; in the data, active = GI50 up to about 1.1 µM and inactive = higher.

Key:
Assay in all cases: NCI anticancer screen, dose series, 48 h
[1] = system: T47D
[2] = system: SNB-75
[3] = system: SF-539
[4] = system: NCI-H23
[5] = system: SNB-19
[6] = system: OVCAR-3
[7] = system: M14
[8] = system: UACC-62
[9] = system: MOLT-4
[10] = system: OVCAR-8
[11] = system: SN12C
[12] = system: A549
[13] = system: NCI-H460
[14] = system: EKVX
[15] = system: SK-OV-3
[16] = system: KM12
[17] = system: PC-3
[18] = system: 786-0
[19] = system: NCI-H226
[20] = system: UACC-257

SMILES: CC1=CC(O)C(C(O)(C(F)(F)F)C(F)(F)F)C(C)(C)C1 (stereo not given)
- GI50 [1]: > 10 µM (inactive)
- GI50 [2]: > 10 µM (inactive)
- GI50 [3]: > 10 µM (inactive)
- GI50 [4]: > 10 µM (inactive)
- GI50 [5]: > 10 µM (inactive)
- GI50 [6]: > 10 µM (inactive)
- GI50 [7]: < 0.001 µM (active)
- GI50 [8]: > 10 µM (inactive)
- GI50 [9]: > 10 µM (inactive)
- GI50 [10]: > 10 µM (inactive)
- GI50 [11]: > 10 µM (inactive)
- GI50 [12]: > 10 µM (inactive)
- GI50 [13]: > 10 µM (inactive)
- GI50 [14]: > 10 µM (inactive)
- GI50 [15]: > 10 µM (inactive)
- GI50 [16]: > 10 µM (inactive)
- GI50 [17]: > 10 µM (inactive)
- GI50 [18]: < 0.001 µM (active)
- GI50 [19]: > 10 µM (inactive)
- GI50 [20]: > 10 µM (inactive)

SMILES: CCOC(=O)C1CC(C(=O)c2ccccc2)N2c3ccccc3-c3ccccc3C12 (stereo not given)
- GI50 [1]: 23.6 µM (inactive)
- GI50 [2]: 28.1 µM (inactive)
- GI50 [3]: > 100 µM (inactive)
- GI50 [4]: > 100 µM (inactive)
- GI50 [5]: > 100 µM (inactive)
- GI50 [6]: 30 µM (inactive)
- GI50 [7]: 26.4 µM (inactive)
- GI50 [8]: 46.7 µM (inactive)
- GI50 [9]: 52 µM (inactive)
- GI50 [10]: 33.8 µM (inactive)
- GI50 [11]: > 100 µM (inactive)
- GI50 [12]: 73.6 µM (inactive)
- GI50 [13]: > 100 µM (inactive)
- GI50 [14]: > 100 µM (inactive)
- GI50 [15]: > 100 µM (inactive)
- GI50 [16]: 48.6 µM (inactive)
- GI50 [17]: 40.6 µM (inactive)
- GI50 [18]: 40.1 µM (inactive)
- GI50 [19]: > 100 µM (inactive)
- GI50 [20]: > 100 µM (inactive)

SMILES: O=C(O)CN1CCNCCN(CC(=O)O)CC1
- GI50 [1]: > 100 µM (inactive)
- GI50 [2]: 12.3 µM (inactive)
- GI50 [3]: 13 µM (inactive)
- GI50 [4]: 3.25 µM (inactive)
- GI50 [5]: > 100 µM (inactive)
- GI50 [6]: 6.49 µM (inactive)
- GI50 [7]: 25.7 µM (inactive)
- GI50 [8]: 12.6 µM (inactive)
- GI50 [9]: 4.81 µM (inactive)
- GI50 [10]: 2.63 µM (inactive)
- GI50 [11]: > 100 µM (inactive)
- GI50 [12]: 14.8 µM (inactive)
- GI50 [13]: 7.66 µM (inactive)
- GI50 [14]: 12.5 µM (inactive)
- GI50 [15]: 38.4 µM (inactive)
- GI50 [16]: 16.8 µM (inactive)
- GI50 [17]: 18.1 µM (inactive)
- GI50 [18]: 5.48 µM (inactive)
- GI50 [19]: 9.93 µM (inactive)
- GI50 [20]: 15.2 µM (inactive)

SMILES: Cc1c(-c2cnccn2)ssc1=S [OLTIPRAZ]
- GI50 [1]: 67.6 µM (inactive)
- GI50 [2]: 18.5 µM (inactive)
- GI50 [3]: 63.1 µM (inactive)
- GI50 [4]: 88.5 µM (inactive)
- GI50 [5]: 68.1 µM (inactive)
- GI50 [6]: 99.3 µM (inactive)
- GI50 [7]: > 100 µM (inactive)
- GI50 [8]: 76.2 µM (inactive)
- GI50 [9]: > 96.4 µM (inactive)
- GI50 [10]: 72.4 µM (inactive)
- GI50 [11]: > 100 µM (inactive)
- GI50 [12]: 98.9 µM (inactive)
- GI50 [13]: > 100 µM (inactive)
- GI50 [14]: 33.2 µM (inactive)
- GI50 [15]: 35.9 µM (inactive)
- GI50 [16]: > 80.9 µM (inactive)
- GI50 [17]: > 100 µM (inactive)
- GI50 [18]: 40.4 µM (inactive)
- GI50 [19]: 94.2 µM (inactive)
- GI50 [20]: 24.5 µM (inactive)

SMILES: COc1ccc(Cc2ccc3nc(O)cc(C)c3c2)cc1S(=O)(=O)O
- GI50 [1]: > 100 µM (inactive)
- GI50 [2]: > 100 µM (inactive)
- GI50 [3]: > 100 µM (inactive)
- GI50 [4]: > 100 µM (inactive)
- GI50 [5]: > 100 µM (inactive)
- GI50 [6]: > 100 µM (inactive)
- GI50 [7]: > 100 µM (inactive)
- GI50 [8]: > 100 µM (inactive)
- GI50 [9]: > 100 µM (inactive)
- GI50 [10]: > 100 µM (inactive)
- GI50 [11]: > 100 µM (inactive)
- GI50 [12]: > 100 µM (inactive)
- GI50 [13]: > 100 µM (inactive)
- GI50 [14]: > 100 µM (inactive)
- GI50 [15]: > 100 µM (inactive)
- GI50 [16]: > 100 µM (inactive)
- GI50 [17]: > 100 µM (inactive)
- GI50 [18]: > 100 µM (inactive)
- GI50 [19]: > 100 µM (inactive)
- GI50 [20]: > 100 µM (inactive)

SMILES: C=C1C(OC)=C(OC)C(=O)c2[nH]c3c(OC)cc([N+](=O)[O-])cc3c21
- GI50 [1]: > 100 µM (inactive)
- GI50 [2]: 39.1 µM (inactive)
- GI50 [3]: > 100 µM (inactive)
- GI50 [4]: > 100 µM (inactive)
- GI50 [5]: > 100 µM (inactive)
- GI50 [6]: > 100 µM (inactive)
- GI50 [7]: > 100 µM (inactive)
- GI50 [8]: > 100 µM (inactive)
- GI50 [9]: > 100 µM (inactive)
- GI50 [10]: > 100 µM (inactive)
- GI50 [11]: > 100 µM (inactive)
- GI50 [12]: > 100 µM (inactive)
- GI50 [13]: > 100 µM (inactive)
- GI50 [14]: 62.4 µM (inactive)
- GI50 [15]: > 100 µM (inactive)
- GI50 [16]: > 100 µM (inactive)
- GI50 [17]: > 100 µM (inactive)
- GI50 [18]: 37.8 µM (inactive)
- GI50 [19]: > 100 µM (inactive)
- GI50 [20]: > 100 µM (inactive)

SMILES: CN(C)/C=N\c1c(Br)cc(Br)c2nonc12
- GI50 [1]: > 100 µM (inactive)
- GI50 [2]: 44.3 µM (inactive)
- GI50 [3]: > 100 µM (inactive)
- GI50 [4]: > 100 µM (inactive)
- GI50 [5]: > 100 µM (inactive)
- GI50 [6]: > 100 µM (inactive)
- GI50 [7]: > 100 µM (inactive)
- GI50 [8]: > 100 µM (inactive)
- GI50 [9]: > 100 µM (inactive)
- GI50 [10]: > 100 µM (inactive)
- GI50 [11]: > 100 µM (inactive)
- GI50 [12]: > 100 µM (inactive)
- GI50 [13]: > 100 µM (inactive)
- GI50 [14]: > 100 µM (inactive)
- GI50 [15]: > 100 µM (inactive)
- GI50 [16]: > 100 µM (inactive)
- GI50 [17]: > 100 µM (inactive)
- GI50 [18]: > 100 µM (inactive)
- GI50 [19]: > 100 µM (inactive)
- GI50 [20]: > 100 µM (inactive)

SMILES: COc1cc(Nc2nc3c(N)cc(C(F)(F)F)cc3nc2-c2ccccc2)cc(OC)c1OC
- GI50 [1]: 14.1 µM (inactive)
- GI50 [2]: 17 µM (inactive)
- GI50 [3]: 28.1 µM (inactive)
- GI50 [4]: 70.3 µM (inactive)
- GI50 [5]: 25.8 µM (inactive)
- GI50 [6]: 57.1 µM (inactive)
- GI50 [7]: 66.2 µM (inactive)
- GI50 [8]: 43.1 µM (inactive)
- GI50 [9]: > 100 µM (inactive)
- GI50 [10]: 24.5 µM (inactive)
- GI50 [11]: 43 µM (inactive)
- GI50 [12]: 49.5 µM (inactive)
- GI50 [13]: 37.2 µM (inactive)
- GI50 [14]: > 100 µM (inactive)
- GI50 [15]: 42.5 µM (inactive)
- GI50 [16]: 72.8 µM (inactive)
- GI50 [17]: 37.2 µM (inactive)
- GI50 [18]: 24.3 µM (inactive)
- GI50 [19]: 61.1 µM (inactive)
- GI50 [20]: 63 µM (inactive)
